Test results published in patent US11384055B2 (BIOMARIN PHARMACEUTICAL INC., priority 2017, dated 2022).
pIC50: −log10 of the molar value. Read-outs that look alike come from different tables or passages of the source.

Target: T1, Human GO (Homo sapiens, UniProt Q9UJM8)
T1 construct: purchased Novus Biologicals NBP1-72412
T1 sequence (Q9UJM8 1-370): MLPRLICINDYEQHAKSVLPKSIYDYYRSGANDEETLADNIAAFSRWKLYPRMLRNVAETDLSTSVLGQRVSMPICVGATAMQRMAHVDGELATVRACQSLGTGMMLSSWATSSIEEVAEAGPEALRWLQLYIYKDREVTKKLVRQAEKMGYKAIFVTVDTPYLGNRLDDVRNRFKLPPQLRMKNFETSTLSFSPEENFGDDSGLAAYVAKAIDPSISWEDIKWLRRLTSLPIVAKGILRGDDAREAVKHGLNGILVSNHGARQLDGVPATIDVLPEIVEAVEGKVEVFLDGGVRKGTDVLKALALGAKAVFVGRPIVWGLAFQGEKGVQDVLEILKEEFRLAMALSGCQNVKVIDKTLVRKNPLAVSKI
Test: GO enzymatic assay (coupled fluorescence/HRP assay, glycolate substrate)
Type: biochemical
Summary of the method: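 Coupled HRP/fluorescence read-out of glycolate oxidation by human GO in 50 mM potassium phosphate buffer (pH 7). Inhibitors added across a concentration range.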

[1] = Table 1, read-out: Range (range of IC50 values calculated from the enzymatic assays)
[2] = Table 6, GO enzymatic assay, read-out: Range (range of IC50 values calculated from the enzymatic assays)

SMILES	pIC50 [1]	also measured
O=C(O)c1[nH]nnc1OC1CCc2cc(Cl)c(Cl)cc2C1 (stereo not drawn) [Compound 111, 4-((6,7-dichloro-1,2,3,4-tetrahydronaphthalen-2-yl)oxy)-1H-1,2,3-triazole-5-carboxylic acid 2,2,2-trifluoroacetate]	> 7.00	–
O=C(O)c1[nH]nnc1O[C@@H]1CCc2cc(Cl)c(Cl)cc2C1 [Compound 111-1, (R)-4-((6,7-dichloro-1,2,3,4-tetrahydronaphthalen-2-yl)oxy)-1H-1,2,3-triazole-5-carboxylic acid]	–	pIC50 [2]: > 7.00
O=C(O)c1[nH]nnc1O[C@H]1CCc2cc(Cl)c(Cl)cc2C1 [Compound 111-2, (S)-4-((6,7-dichloro-1,2,3,4-tetrahydronaphthalen-2-yl)oxy)-1H-1,2,3-triazole-5-carboxylic acid]	–	pIC50 [2]: > 7.00
O=C(OC1CC1)c1[nH]nnc1Oc1ccc(Cl)c(Cl)c1 [Compound 112, cyclopropyl 4-(3,4-dichlorophenoxy)-1H-1,2,3-triazole-5-carboxylate]	< 5.00	–
O=C(O)c1[nH]nnc1Oc1ccc2cccnc2c1 [Compound 113, 4-(quinolin-7-yloxy)-1H-1,2,3-triazole-5-carboxylic acid 2,2,2-trifluoroacetate]	> 7.00	–
O=C(O)c1[nH]nnc1Oc1cccc(OC(F)(F)F)c1 [Compound 114, 4-(3-(trifluoromethoxy)phenoxy)-1H-1,2,3-triazole-5-carboxylic acid]	> 7.00	–
O=C(O)c1[nH]nnc1Oc1cnc2ccccc2c1 [Compound 115, 4-(quinolin-3-yloxy)-1H-1,2,3-triazole-5-carboxylic acid 2,2,2-trifluoroacetate]	6.00 to 7.00	–
O=C(OC1CC1)c1[nH]nnc1Oc1ccc2c(c1)CCCC2 [Compound 116, cyclopropyl 4-((5,6,7,8-tetrahydronaphthalen-2-yl)oxy)-1H-1,2,3-triazole-5-carboxylate]	< 5.00	–
O=C(O)c1[nH]nnc1OC1CCc2ccccc2C1 (stereo not drawn) [Compound 117, 4-((1,2,3,4-tetrahydronaphthalen-2-yl)oxy)-1H-1,2,3-triazole-5-carboxylic acid 2,2,2-trifluoroacetate]	> 7.00	–
O=C(O)c1[nH]nnc1Oc1ccc2ccncc2c1 [Compound 118, 4-(isoquinolin-7-yloxy)-1H-1,2,3-triazole-5-carboxylic acid 2,2,2-trifluoroacetate]	> 7.00	–
O=C(O)c1[nH]nnc1Oc1ccc(-c2ccc(OC(F)(F)F)cc2)c(Cl)c1 [Compound 119, 4-((2-chloro-4′-(trifluoromethoxy)-[1,1′-biphenyl]-4-yl)oxy)-1H-1,2,3-triazole-5-carboxylic acid]	> 7.00	–
O=C(O)c1[nH]nnc1Oc1ccc2ncccc2c1 [Compound 120, 4-(quinolin-6-yloxy)-1H-1,2,3-triazole-5-carboxylic acid 2,2,2-trifluoroacetate]	6.00 to 7.00	–
O=C(O)c1[nH]nnc1Oc1ccc2cnccc2c1 [Compound 121, 4-(isoquinolin-6-yloxy)-1H-1,2,3-triazole-5-carboxylic acid 2,2,2-trifluoroacetate]	6.00 to 7.00	–
O=C(O)c1[nH]nnc1Oc1ccc(-c2ccc3ncccc3c2)cc1 [Compound 122, 5-(4-(quinolin-6-yl)phenoxy)-1H-1,2,3-triazole-4-carboxylic acid]	> 7.00	–
O=C(O)c1[nH]nnc1-c1csc(-c2ccc(Cl)c(Cl)c2)n1 [Compound 124, 4-(2-(3,4-dichlorophenyl)thiazol-4-yl)-1H-1,2,3-triazole-5-carboxylic acid]	> 7.00	–
O=C(O)c1[nH]nnc1-c1ccc(Cl)c(Cl)c1 [Compound 125, 4-(3,4-dichlorophenyl)-1H-1,2,3-triazole-5-carboxylic acid]	–	pIC50: > 7.00
O=C(O)c1[nH]nnc1-c1ccc(-c2ccc(Cl)cc2)cc1 [Compound 126, 2,2,2-trifluoroacetate]	–	pIC50: > 7.00

SMILES	pIC50 [1]	also measured
O=C(O)c1[nH]nnc1-c1ccc(Oc2ccc(Cl)cc2)cc1 [Compound 127, 4-(4-(4-chlorophenoxy)phenyl)-1H-1,2,3-triazole-5-carboxylic acid]	> 7.00	–
O=C(O)c1[nH]nnc1-c1ccc(-c2ccc(OC(F)(F)F)cc2)cc1 [Compound 128]	–	pIC50: 6.00 to 7.00
O=C(O)c1[nH]nnc1-c1cccc(-c2ccc(Cl)c(Cl)c2)c1 [Compound 129, 4-(3′,4′-dichloro-[1,1′-biphenyl]-3-yl)-1H-1,2,3-triazole-5-carboxylic acid]	> 7.00	–
O=C(O)c1[nH]nnc1-c1ccc(-c2ccc(Cl)cc2)c(Cl)c1 [Compound 130, 2,2,2-trifluoroacetate]	–	pIC50: > 7.00
O=C(O)c1[nH]nnc1-c1cccc(Oc2ccc(Cl)c(Cl)c2)c1 [Compound 131, 4-(3-(3,4-dichlorophenoxy)phenyl)-1H-1,2,3-triazole-5-carboxylic acid 2,2,2-trifluoroacetate]	> 7.00	–
O=C(O)c1[nH]nnc1-c1ccc2cc(Cl)ccc2n1 [Compound 132, 4-(6-chloroquinolin-2-yl)-1H-1,2,3-triazole-5-carboxylic acid 2,2,2-trifluoroacetate]	> 7.00	–
O=C(O)c1[nH]nnc1-c1ccc2cc(Cl)ccc2c1 [Compound 133, 4-(6-chloronaphthalen-2-yl)-1H-1,2,3-triazole-5-carboxylic acid]	–	pIC50: > 7.00
O=C(O)c1[nH]nnc1-c1nccc2ccc(Cl)cc12 [Compound 134, 4-(7-chloroisoquinolin-1-yl)-1H-1,2,3-triazole-5-carboxylic acid]	< 5.00	–
O=C(O)c1[nH]nnc1-c1cccc(OC(F)(F)F)c1 [Compound 135, 4-(3-(trifluoromethoxy)phenyl)-1H-1,2,3-triazole-5-carboxylic acid]	–	pIC50: > 7.00
O=C(O)c1[nH]nnc1-c1ccc(OC(F)(F)F)cc1 [Compound 136, 4-(4-(trifluoromethoxy)phenyl)-1H-1,2,3-triazole-5-carboxylic acid]	6.00 to 7.00	–
O=C(O)c1[nH]nnc1-c1ccc(OCC2CCCC2)cc1 [Compound 137, 4-(4-(cyclopentylmethoxy)phenyl)-1H-1,2,3-triazole-5-carboxylic acid]	6.00 to 7.00	–
O=C(O)c1[nH]nnc1-c1ccc(OC2CCCC2)cc1 [Compound 138, 4-(4-(cyclopentyloxy)phenyl)-1H-1,2,3-triazole-5-carboxylic acid]	6.00 to 7.00	–
O=C(O)c1[nH]nnc1-c1ccc(-c2ccc(OC(F)(F)F)cc2)c(Cl)c1 [Compound 139, 4-(2-chloro-4′-(trifluoromethoxy)-[1,1′-biphenyl]-4-yl)-1H-1,2,3-triazole-5-carboxylic acid 2,2,2-trifluoroacetate]	6.00 to 7.00	–
O=C(O)c1[nH]nnc1C1=Cc2ccccc2CC1 [Compound 140, 4-(3,4-dihydronaphthalen-2-yl)-1H-1,2,3-triazole-5-carboxylic acid 2,2,2-trifluoroacetate]	> 7.00	–
O=C(O)c1[nH]nnc1C1CCc2ccccc2C1 (stereo not drawn) [Compound 141, 4-(1,2,3,4-tetrahydronaphthalen-2-yl)-1H-1,2,3-triazole-5-carboxylic acid 2,2,2-trifluoroacetate]	6.00 to 7.00	–
CC(C)N1CCc2cc(-c3nn[nH]c3C(=O)O)ccc2C1 [Compound 143, 4-(2-isopropyl-1,2,3,4-tetrahydroisoquinolin-6-yl)-1H-1,2,3-triazole-5-carboxylic acid 2,2,2-trifluoroacetate]	< 5.00	–
